Measurements from PubChem BioAssay (NCI).
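How tested: cells in 96-well plates exposed to compound for 48 hours at five concentrations. GI50: concentration for 50% inhibition of growth. TGI is the concentration that stops growth completely.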

Legend:
Assay in all cases: DTP human tumour cell line panel, 48 h
ACHN renal = test system: ACHN renal
CCRF-CEM leukemia = test system: CCRF-CEM leukemia
HCT-15 colon = test system: HCT-15 colon
LOX IMVI melanoma = test system: LOX IMVI melanoma
MOLT-4 leukemia = test system: MOLT-4 leukemia
NCI-H23 lung = test system: NCI-H23 lung
SN12C renal = test system: SN12C renal
U251 CNS = test system: U251 CNS
UO-31 renal = test system: UO-31 renal
T-47D breast = test system: T-47D breast

Row | Compound | GI50 (ACHN renal) [µM] | TGI (ACHN renal) [µM] | GI50 (CCRF-CEM leukemia) [µM] | TGI (CCRF-CEM leukemia) [µM] | GI50 (HCT-15 colon) [µM] | TGI (HCT-15 colon) [µM] | GI50 (LOX IMVI melanoma) [µM] | TGI (LOX IMVI melanoma) [µM] | GI50 (MOLT-4 leukemia) [µM] | TGI (MOLT-4 leukemia) [µM] | GI50 (NCI-H23 lung) [µM] | TGI (NCI-H23 lung) [µM] | GI50 (SN12C renal) [µM] | TGI (SN12C renal) [µM] | GI50 (U251 CNS) [µM] | TGI (U251 CNS) [µM] | GI50 (UO-31 renal) [µM] | TGI (UO-31 renal) [µM] | GI50 (T-47D breast) [µM] | TGI (T-47D breast) [µM]
1 | CCN1CCN(Cc2ccc(NC(=O)Nc3nc(-c4cc(OC)c(OC)c(OC)c4)cs3)cc2C(F)(F)F)CC1 | 1.91 | 4.1 | 1.87 | 6.07 | 1.41 | 3.55 | 2.18 | 7.14 | 1.29 | 3.69 | 1.69 | 3.59 | 1.45 | 3.19 | 1.37 | 2.81 | 1.36 | 3.78 |  | 
2 | CC(=O)Oc1ccc2c(=O)c(C(C)=O)coc2c1 |  | > 100 |  | > 100 |  | > 100 |  | > 100 |  | > 100 |  | > 100 |  |  |  | > 100 |  | > 100 |  | 
3 | Cc1[nH]c(=O)n2c(C)nnc2c1C(=O)O |  | > 100 |  | > 100 |  | > 100 |  | > 100 |  | > 100 |  | > 100 |  | > 100 |  | > 100 |  | > 100 |  | 
4 | CCCCCOC(=O)Nc1nc(=O)n(C2OC(C)C(O)C2O)cc1F (centres undefined) |  |  | > 10000 | > 10000 | > 10000 | > 10000 |  |  | > 10000 | > 10000 |  |  | > 10000 | > 10000 | > 10000 | > 10000 | > 10000 | > 10000 | > 10000 | > 10000
5 | CC[C@]12C=CCN3CC[C@@]4(c5ccc(OC)cc5N(C)[C@H]4[C@@](O)(C(=O)OC)[C@@H]1OC(=O)CCC(=O)O[C@H]1CC[C@H]4[C@@H]5CCC6=CC(=O)CC[C@@H]6[C@H]5CC[C@]14C)[C@@H]32 | 1.57 | > 50 | 1.66 | > 50 | 1.51 | > 50 | 1.51 | 4.63 | 1.55 | > 50 | 1.98 | > 50 | 1.64 | > 50 | 1.91 | > 50 |  |  | 1.79 | > 50
6 | COC(=O)c1cc(O)ccc1O |  | > 100 |  | > 100 |  | > 100 |  | > 100 |  | > 100 |  |  |  | > 100 |  | > 100 |  | > 100 |  | 
7 | O=C1NC(c2ccc3ccccc3c2)Nc2ccccc21 (centres undefined) |  | > 100 |  | > 100 |  | > 100 |  | > 100 |  |  |  | > 100 |  |  |  | > 100 |  | > 100 |  | > 100
8 | O=C(O)c1ccc(CSc2nc3ccccc3[nH]2)cc1 | > 100 | > 100 | > 100 | > 100 | > 100 | > 100 | > 100 | > 100 | > 100 | > 100 | > 100 | > 100 | > 100 | > 100 | > 100 | > 100 | > 100 | > 100 |  | 
9 | CC[O-].CC[O-].O=C1C=C([O-])C(=O)c2ccccc21.O=C1C=C([O-])C(=O)c2ccccc21.[Ti+4] | 71 | > 100 | > 100 | > 100 | 60.6 | > 100 | 5.25 | > 100 | > 100 | > 100 | 4.43 | > 100 | > 100 | > 100 | > 100 | > 100 | > 86.1 | > 100 |  | 
10 | O=C(/C=C(/C=C/c1cccc2[nH]ccc12)OB(F)F)/C=C/c1cccc2[nH]ccc12 | 0.514 | 2.04 | 0.324 |  | 0.348 | 1.49 | 0.348 | 1.02 | 0.385 | 3.72 | 0.838 | 3.92 | 0.687 | 5.45 | 0.469 | 1.83 |  |  | 0.796 | 26.8
11 | CNC(=O)/C=C/C1=CN2C(=O)c3ccc(C)c(O)c3NC(OC)C2C1 (centres undefined) |  |  |  | > 4.64 |  | 4.48 |  | 4.19 |  | > 8.39 |  | < 0.0177 |  | 12.1 |  | 1.67 |  | 0.265 |  | < 0.0489
12 | CC(=O)OCc1nnn2c1C(OC(C)=O)CC2 (centres undefined) |  | > 100 |  |  |  | > 100 |  |  |  | > 100 |  | > 100 |  | > 100 |  | > 100 |  | > 100 |  | 
13 | CC1=C2CC[C@@]3(C)C(=CCC3O)C2(C)CCC1=O (some centres undefined) |  | > 100 |  | > 100 |  | > 100 |  | > 100 |  | > 100 |  |  |  | > 100 |  | > 100 |  | > 100 |  | 
14 | O=C(Cc1cc(O)ccc1O)NO | > 100 | > 100 | 22.3 | 48.6 | 74.6 | > 100 | 28.5 | 80.9 | 19.7 | 41 | > 100 | > 100 | 18.2 | 33.8 | 32.7 | > 100 | > 100 | > 100 |  | 
15 | CCOC(=O)C(C(=O)OCC)=C1C=C(c2ccccc2)c2ccccc21 |  | > 100 |  | > 100 |  | > 100 |  | > 100 |  | > 100 |  | > 100 |  | > 100 |  | > 100 |  | > 100 |  | 
16 | Cc1ccc(NC(=S)NNC(=S)Nc2ccc(C)cc2)cc1 | 9.7 | > 100 |  |  | 5.15 | > 100 | 6.13 | > 100 |  |  | 5.98 | > 100 |  |  | 5.16 | > 100 | 11.6 | > 100 | 14.4 | > 100
17 | COC(=O)C1C(C(=O)O)C2(c3ccccc3)C(=O)C1(c1ccccc1)C(c1ccc(OC)cc1)=C2c1ccc(OC)cc1 (centres undefined) | 36.6 | > 100 | 13.2 | 38.5 | 38.6 | > 100 | 33.2 | > 100 | 18 | 43.4 | 17.5 | 33.7 | 20.5 | 49 | 36.6 | > 100 | 25.8 | 75 |  | 
